Test system: moderate-to-severe chronic spontaneous urticaria (CSU)
Experiment: Phase 2 CSU study: urticaria control test (UCT)
Type: in vivo, human
Design: key to UCT, Mean / UCT, Median / UCT change from baseline, Mean / UCT change from baseline, Median: UCT total = sum of 4 item scores; low = low disease control
Excerpt: The study comprises a 12 week, randomized, double-blind, placebo-controlled, multi-center, dose-ranging efficacy and safety phase, followed by a 40 week open label extension (OLE) phase (see FIG. 1). The study consists of three phases and an optional OLE phase. […] To this end, the UCT was proposed as a tertiary endpoint in this study. […] The dermatology life quality index (DLQI) was proposed as a tertiary endpoint in this study. […] Low scores indicate high disease activity and low disease control. The UCT total score is calculated by adding all 4 individual item scores. […] The recall period is the previous 4 weeks. Patients were to complete the UCT questionnaire during their site visit.

[1] = 400 mg QPM, Week 8, ITT population
[2] = 400 mg QPM, Week 8, omalizumab-naïve population
[3] = 400 mg QPM, Week 8, prior omalizumab use incl. incomplete responders
[4] = 400 mg QPM, Week 12, ITT population
[5] = 400 mg QPM, Week 12, omalizumab-naïve population
[6] = 400 mg QPM, Week 12, prior omalizumab use incl. incomplete responders
[7] = 400 mg TID, End of study, omalizumab-naïve population
[8] = 400 mg TID, End of study, prior omalizumab use incl. incomplete responders
[9] = 400 mg TID, Week 4, ITT population
[10] = 400 mg TID, Week 4, omalizumab-naïve population
[11] = 400 mg TID, Week 4, prior omalizumab use incl. incomplete responders
[12] = 400 mg TID, Week 8, ITT population
[13] = 400 mg TID, Week 8, omalizumab-naïve population
[14] = 400 mg TID, Week 8, prior omalizumab use incl. incomplete responders
[15] = 400 mg TID, Week 12, ITT population
[16] = 400 mg TID, Week 12, omalizumab-naïve population
[17] = 400 mg TID, Week 12, prior omalizumab use incl. incomplete responders

SMILES: CC(C)(C=C(C#N)C(=O)N1CCC[C@@H](n2nc(-c3ccc(Oc4ccccc4)cc3F)c3c(N)ncnc32)C1)N1CCN(C2COC2)CC1 [rilzabrutinib, (R)-2-[3-[4-amino-3-(2-fluoro-4-phenoxy-phenyl)pyrazolo[3,4-d]pyrimidin-1-yl]piperidine-1-carbonyl]-4-methyl-4-[4-(oxetan-3-yl)piperazin-1-yl]pent-2-enenitrile]
- UCT % Change difference for rilzabrutinib vs. placebo LS Mean (95% CI) [1]: −37.84 (−167.44, 91.76) %
- UCT % Change from baseline LS Mean (SE) [1]: 126.71 (44.63) %
- UCT Change difference for rilzabrutinib vs. placebo LS Mean (95% CI) [1]: −1.21 (−3.16, 0.74)
- UCT Change from baseline LS Mean (SE) [1]: 3.16 (0.71)
- UCT Post-baseline Mean (SD) [1]: 6.97 (3.84)
- UCT % Change difference for rilzabrutinib vs. placebo LS Mean (95% CI) [2]: −48.49 (−177.78, 80.81) %
- UCT % Change from baseline LS Mean (SE) [2]: 121.09 (44.66) %
- UCT Change difference for rilzabrutinib vs. placebo LS Mean (95% CI) [2]: −1.49 (−3.43, 0.45)
- UCT Change from baseline LS Mean (SE) [2]: 2.98 (0.71)
- UCT Post-baseline Mean (SD) [2]: 6.84 (3.84)
- UCT change from baseline, Mean [2]: 3.09
- UCT change from baseline, Median [2]: 2.00
- UCT percent change from baseline, Mean [2]: 138.85%
- UCT, Median [2]: 7.00
- UCT change from baseline, Mean [3]: 6.00
- UCT change from baseline, Median [3]: 6.00
- UCT percent change from baseline, Mean [3]: 120.00%
- UCT percent change from baseline, Median [3]: 120.00%
- UCT % Change difference for rilzabrutinib vs. placebo LS Mean (95% CI) [4]: −100.02 (−238.68, 38.64) %
- UCT % Change from baseline LS Mean (SE) [4]: 99.76 (47.53) %
- UCT Change difference for rilzabrutinib vs. placebo LS Mean (95% CI) [4]: −1.82 (−3.87, 0.23)
- UCT Change from baseline LS Mean (SE) [4]: 2.92 (0.76)
- UCT Post-baseline Mean (SD) [4]: 6.97 (3.84)
- UCT % Change difference for rilzabrutinib vs. placebo LS Mean (95% CI) [5]: −105.95 (−247.17, 35.27) %
- UCT Change difference for rilzabrutinib vs. placebo LS Mean (95% CI) [5]: −1.96 (−3.99, 0.08)
- UCT Change from baseline LS Mean (SE) [5]: 2.77 (0.75)
- UCT Post-baseline Mean (SD) [5]: 6.88 (3.86)
- UCT change from baseline, Mean [5]: 3.13
- UCT change from baseline, Median [5]: 2.00
- UCT percent change from baseline, Mean [5]: 121.74%
- UCT percent change from baseline, Median [5]: 92.86%
- UCT, Median [5]: 7.00
- UCT change from baseline, Mean [6]: 5.00
- UCT change from baseline, Median [6]: 5.00
- UCT percent change from baseline, Mean [6]: 100.00%
- UCT percent change from baseline, Median [6]: 100.00%
- UCT over baseline (400 mg TID): mild increase
- UCT change from baseline, Mean [7]: 4.00
- UCT change from baseline, Median [7]: 4.00
- UCT percent change from baseline, Mean [7]: 41.03%
- UCT percent change from baseline, Median [7]: 41.03%
- UCT change from baseline, Mean [8]: 11.60
- UCT change from baseline, Median [8]: 13.00
- UCT percent change from baseline, Mean [8]: 7.80%
- UCT percent change from baseline, Median [8]: 9.00%
- UCT, Mean [8]: 4.83
- UCT, Median [8]: 4.00
- UCT % Change difference for rilzabrutinib vs. placebo LS Mean (95% CI) [9]: 122.56 (−10.01, 255.13) %
- UCT % Change from baseline LS Mean (SE) [9]: 262.11 (48.72) %
- UCT Change difference for rilzabrutinib vs. placebo LS Mean (95% CI) [9]: 2.34 (0.46, 4.22)
- UCT Change from baseline LS Mean (SE) [9]: 5.68 (0.68)
- UCT Post-baseline Mean (SD) [9]: 10.03 (4.20)
- UCT % Change difference for rilzabrutinib vs. placebo LS Mean (95% CI) [10]: 124.43 (−9.74, 258.61) %
- UCT % Change from baseline LS Mean (SE) [10]: 267.24 (49.68) %
- UCT Change difference for rilzabrutinib vs. placebo LS Mean (95% CI) [10]: 2.23 (0.33, 4.13)
- UCT Change from baseline LS Mean (SE) [10]: 5.47 (0.70)
- UCT Post-baseline Mean (SD) [10]: 9.77 (4.17)
- UCT change from baseline, Mean [10]: 5.63
- UCT change from baseline, Median [10]: 6.50
- UCT percent change from baseline, Mean [10]: 254.30%
- UCT percent change from baseline, Median [10]: 100.00%
- UCT change from baseline, Mean [11]: 7.80
- UCT change from baseline, Median [11]: 9.00
- UCT percent change from baseline, Mean [11]: 146.88%
- UCT percent change from baseline, Median [11]: 143.75%
- UCT, Median [11]: 13.00
- UCT % Change difference for rilzabrutinib vs. placebo LS Mean (95% CI) [12]: 108.30 (−18.30, 234.90) %
- UCT % Change from baseline LS Mean (SE) [12]: 272.85 (43.60) %
- UCT Change difference for rilzabrutinib vs. placebo LS Mean (95% CI) [12]: 1.43 (−0.50, 3.37)
- UCT Change from baseline LS Mean (SE) [12]: 5.80 (0.69)
- UCT Post-baseline Mean (SD) [12]: 10.00 (3.85)
- UCT % Change difference for rilzabrutinib vs. placebo LS Mean (95% CI) [13]: 102.55 (−31.38, 236.49) %
- UCT % Change from baseline LS Mean (SE) [13]: 272.13 (49.40) %
- UCT Change difference for rilzabrutinib vs. placebo LS Mean (95% CI) [13]: 1.19 (−0.75, 3.12)
- UCT Change from baseline LS Mean (SE) [13]: 5.66 (0.71)
- UCT Post-baseline Mean (SD) [13]: 9.80 (3.86)
- UCT change from baseline, Median [13]: 6.50
- UCT percent change from baseline, Mean [13]: 277.48%
- UCT percent change from baseline, Median [13]: 120.83%
- UCT, Median [13]: 9.50
- UCT change from baseline, Median [14]: 5.00
- UCT percent change from baseline, Mean [14]: 107.33%
- UCT percent change from baseline, Median [14]: 25.00%
- UCT % Change difference for rilzabrutinib vs. placebo LS Mean (95% CI) [15]: 122.43 (−16.89, 261.74) %
- UCT % Change from baseline LS Mean (SE) [15]: 322.21 (47.00) %
- UCT Change difference for rilzabrutinib vs. placebo LS Mean (95% CI) [15]: 1.80 (−0.20, 3.79)
- UCT Change from baseline LS Mean (SE) [15]: 6.53 (0.70)
- UCT Post-baseline Mean (SD) [15]: 10.69 (4.25)
- UCT % Change difference for rilzabrutinib vs. placebo LS Mean (95% CI) [16]: 131.76 (−18.16, 281.68) %
- UCT % Change from baseline LS Mean (SE) [16]: 329.00 (51.79) %
- UCT Change difference for rilzabrutinib vs. placebo LS Mean (95% CI) [16]: 1.58 (−0.47, 3.63)
- UCT Change from baseline LS Mean (SE) [16]: 6.31 (0.76)
- UCT change from baseline, Median [16]: 6.00
- UCT percent change from baseline, Mean [16]: 311.71%
- UCT percent change from baseline, Median [16]: 102.86%
- UCT change from baseline, Mean [17]: 8.00
- UCT change from baseline, Median [17]: 9.00
- UCT percent change from baseline, Mean [17]: 156.25%
- UCT percent change from baseline, Median [17]: 162.50%
- patients achieving a UCT≥12 (400 mg TID, over time up to Week 12): > 20%

Reference: patent publication US20260256792A1, “TREATMENT OF CHRONIC SPONTANEOUS URTICARIA BY ADMINISTERING (R)-2-[3-[4-AMINO-3-(2-FLUORO-4-PHENOXY-PHENYL)PYRAZOLO[3,4-D]PYRIMIDIN-1-YL]PIPERIDINE-1-CARBONYL]-4-METHYL-4-[4-(OXETAN-3-YL)PIPERAZIN-1-YL]PENT-2-ENENITRILE” (priority 2023, published 2026)
